Series [1] in a line: Stability of the compound in MeOH assessed as negative cotton effect at 50 uM by CD spectroscopic method. The class given is physicochemical.
A short description of series [2]: Stability of the compound in 1,4-dioxane assessed as negative cotton effect at 50 uM by CD spectroscopic method. The class given is physicochemical.
Series [3] can be described thus: Stability of the compound in acetonitrile assessed as negative cotton effect at 50 uM by CD spectroscopic method. The class given is physicochemical.
Series [4] in a line: Stability of the compound in THF assessed as negative cotton effect at 50 uM by CD spectroscopic method. The class given is physicochemical.
Series [5] can be described thus: Stability of the compound in n-Octanol assessed as negative cotton effect at 50 uM by CD spectroscopic method. The class given is physicochemical.
A short description of series [6]: Hemolytic activity against human erythrocytes at 20 to 140 uM after 30 mins. The class given is ADME, cell-based. The following applies: erythrocyte, 0.5 h.
The test system of a further series is Klebsiella pneumoniae. Description: Antimicrobial activity against Klebsiella pneumoniae ATCC 13883 after 16 to 20 hrs by broth microdilution method. The class given is functional. (In broth dilution the organism is exposed to a series of concentrations in liquid medium.)
The next series deals with Enterococcus faecium. Nature of the series: Antimicrobial activity against Enterococcus faecium DSMZ 20477 after 16 to 20 hrs by broth microdilution method. The class given is functional.
Another series concerns Proteus mirabilis. Nature of the series: Antimicrobial activity against Proteus mirabilis ATCC 7002 after 16 to 20 hrs by broth microdilution method. The class given is functional.
A further series has as its system Enterococcus faecalis. Nature of the series: Antimicrobial activity against Enterococcus faecalis ATCC 29212 after 16 to 20 hrs by broth microdilution method. The class given is functional.
The next series concerns Staphylococcus aureus. Description: Antimicrobial activity against methicillin-resistant Staphylococcus aureus ATCC 43300 after 16 to 20 hrs by broth microdilution method. The class given is functional.
Series [7] has as its system Staphylococcus epidermidis. Nature of the series: Antimicrobial activity against Staphylococcus epidermidis PP62A after 16 to 20 hrs by broth microdilution method. The class given is functional.
Series [8] deals with Plasmodium falciparum. Description: Antimalarial activity against chloroquine-resistant Plasmodium falciparum Dd2 after 72 hrs by NBT based LDH assay. The class given is functional. Particulars: Dd2, 72 h.
Series [9] concerns Plasmodium falciparum. Nature of the series: Antimalarial activity against chloroquine-sensitive Plasmodium falciparum 3D7 after 72 hrs by NBT based LDH assay. The class given is functional. The following applies: 3D7, 72 h.
The test system of the next series is Escherichia coli. Description: Antimicrobial activity against Escherichia coli ATCC 25922 after 16 to 20 hrs by broth microdilution method. The class given is functional.
Another series deals with Streptococcus pneumoniae. Description: Antimicrobial activity against Streptococcus pneumoniae serotype 19A after 16 to 20 hrs by broth microdilution method. The class given is functional.
In a further series the test system is Pseudomonas aeruginosa. Description: Antimicrobial activity against Pseudomonas aeruginosa ATCC 27853 after 16 to 20 hrs by broth microdilution method. The class given is functional.

SMILES strings stand for the structures. pIC50: −log10 of the molar value. In brackets after ≈: the same amount, converted by molar mass. Some results are limits rather than exact numbers.

Consider `CC(=O)N[C@H](C(=O)NCC(=O)N[C@@H](C)C(=O)N[C@H](CC(C)C)C(=O)N[C@@H](C)C(=O)N[C@@H](C(=O)N[C@H](C(=O)N[C@@H](C(=O)N[C@@H](Cc1c[nH]c2ccccc12)C(=O)N[C@H](CC(C)C)C(=O)N[C@@H](Cc1c[nH]c2ccccc12)C(=O)N[C@H](CC(C)C)C(=O)N[C@@H](Cc1c[nH]c2ccccc12)C(=O)N[C@H](CC(C)C)C(=O)N[C@@H](Cc1c[nH]c2ccccc12)C(=O)NCCSSCCC(=O)N[C@H](C(=O)NCC(=O)N[C@@H](C)C(=O)N[C@H](CC(C)C)C(=O)N[C@@H](C)C(=O)N[C@@H](C(=O)N[C@H](C(=O)N[C@@H](C(=O)N[C@@H](Cc1c[nH]c2ccccc12)C(=O)N[C@H](CC(C)C)C(=O)N[C@@H](Cc1c[nH]c2ccccc12)C(=O)N[C@H](CC(C)C)C(=O)N[C@@H](Cc1c[nH]c2ccccc12)C(=O)N[C@H](CC(C)C)C(=O)N[C@@H](Cc1c[nH]c2ccccc12)C(=O)NCCO)C(C)C)C(C)C)C(C)C)C(C)C)C(C)C)C(C)C)C(C)C)C(C)C`, for which the Stability result in series [1], in series [2], in series [3], in series [4] and in [5] was “Stable” each time. In [6], the Activity entry is “Non-Toxic”.

Turning to `CC(=O)N[C@H](C(=O)NCC(=O)N[C@@H](C)C(=O)N[C@H](CC(C)C)C(=O)N[C@@H](C)C(=O)N[C@@H](C(=O)N[C@H](C(=O)N[C@@H](C(=O)N[C@@H](Cc1c[nH]c2ccccc12)C(=O)N[C@H](CC(C)C)C(=O)N[C@@H](Cc1c[nH]c2ccccc12)C(=O)N[C@H](CC(C)C)C(=O)N[C@@H](Cc1c[nH]c2ccccc12)C(=O)N[C@H](CC(C)C)C(=O)N[C@@H](Cc1c[nH]c2ccccc12)C(=O)NCCSSCCNC(=O)[C@H](Cc1c[nH]c2ccccc12)NC(=O)[C@@H](CC(C)C)NC(=O)[C@H](Cc1c[nH]c2ccccc12)NC(=O)[C@@H](CC(C)C)NC(=O)[C@H](Cc1c[nH]c2ccccc12)NC(=O)[C@@H](CC(C)C)NC(=O)[C@H](Cc1c[nH]c2ccccc12)NC(=O)[C@H](NC(=O)[C@@H](NC(=O)[C@H](NC(=O)[C@H](C)NC(=O)[C@@H](CC(C)C)NC(=O)[C@H](C)NC(=O)CNC(=O)[C@@H](NC(C)=O)C(C)C)C(C)C)C(C)C)C(C)C)C(C)C)C(C)C)C(C)C)C(C)C`, the MIC (in the series with Klebsiella pneumoniae; against Enterococcus faecium; in the series with Proteus mirabilis; against Enterococcus faecalis; against Staphylococcus aureus; in [7]) was over 64 µg/mL each time. Also, the MIC with Escherichia coli was over 64 µg/mL; in the series on Streptococcus pneumoniae, 0.1 µg/mL (≈ 0.0262 µM); with Pseudomonas aeruginosa, over 64 µg/mL. The Stability result in series [1], in [2], in series [4] and in series [5] was “Stable” throughout. For the same compound, the negative logarithm of the IC50 (pIC50) is 9.70 in the series with Plasmodium falciparum [8] and 8.00 with Plasmodium falciparum [9]. Further, the Activity entry in [6] is recorded as “Non-Toxic”.

By MIC is commonly meant the least concentration at which growth counts as inhibited. A low value points to inhibition by little substance. For orientation: pIC50 means the IC50 on a negative log10 scale, so that one unit is a factor of ten. High values mean a low IC50, low ones a high IC50.

(Values after ChEMBL document CHEMBL3870335, “Bioactivity of topologically confined gramicidin A dimers” (Bioorg Med Chem, 2017).)
